What was measured:
[1] = format: in vivo, NSG male mouse; settings: for preferential tumor localization compared to lung: single injection
[2] = single injection at 10 mg/kg; non-radioactive version; cited from earlier work
[3] = cited from earlier work
[4] = single i.p. injection 20 nmol per animal, 24 hours
[5] = single i.p. injection 20 nmol, 7 days

C[14C](=O)N[C@H](CCNC(=O)c1cc(NC(=O)c2cc(NC(=O)c3cc(NC(=O)c4nccn4C)cn3C)cn2C)cn1C)C(=O)Nc1cn(C)c(C(=O)Nc2cc(C(=O)Nc3cc(C(=O)Nc4cc(C(=O)NCCCN(C)CCCNC(=O)c5cccc(C(=O)O)c5)n(C)c4)n(C)c3)n(C)c2)n1 [compound 2]
mean tumor and host tissue values compared with compound 1 ([1]; 24 hours, differently placed C-14 label): within experimental error
preferential tumor localization compared to lung ([1]; 24 hours): up to 12 fold

CC(=O)N[C@H](CCNC(=O)c1cc(NC(=O)c2cc(NC(=O)c3cc(NC(=O)c4nccn4C)cn3C)cn2C)cn1C)C(=O)Nc1cn(C)c(C(=O)Nc2cc(C(=O)Nc3cc(C(=O)Nc4cc(C(=O)NCCCN(C)CCCN[14C](=O)c5cccc([14C](=O)O)c5)n(C)c4)n(C)c3)n(C)c2)n1 [compound 1, ImPyPyPy-(R)^α-NHAcγ-ImPyPyPy]
liver toxicity [2]: not 1
mean tumor concentration, multiple injection experiment ([1]; 3 injections days 1, 4, 7, 20 nmol i.p. each, harvest 24 h after last): 3.49 mg/kg
accumulation upon repeated injection in tumor and organs assessed ([1]; 3 injections over 7 days): Some twofold accumulation
enrichment in the tumor over all host tissues probed ([1]; 4 hour time point): some two-fold enrichment
liver concentration lower than that in tumors ([1]; 24 hours, p < 0.01): 29%
preferential tumor localization compared to lung ([1]; 24 hours): up to 12 fold
mean tumor-associated concentration ([1]; LNCaP tumor, single i.p. injection 20 nmol per animal, harvest 24 hours): 1.48 mg/kg
lung concentration [1, 4]: 0.12 mg/kg
kidney tissue level [1, 5]: 0.05 mg/kg
lung tissue level [1, 5]: 0.06 mg/kg
tumor tissue level [1, 5]: 0.45 mg/kg

CN(CCCNC(=O)c1cc(NC(=O)c2cc(NC(=O)c3cc(NC(=O)c4nc(NC(=O)[C@H](N)CCNC(=O)c5cc(NC(=O)c6cc(NC(=O)c7cc(NC(=O)c8nccn8C)cn7C)cn6C)cn5C)cn4C)cn3C)cn2C)cn1C)CCCN[14C](=O)c1cccc([14C](=O)O)c1 [compound 3]
liver toxicity [2]: resulted in liver toxicity
lung levels relative to compound 1 ([1]; 24 hours): almost eightfold higher
tumor-associated levels compared with compound 1 ([1]; 24 hours): within error
host tissue levels compared with compound 1 ([1]; 24 hours, kidney, liver, lung): substantially higher levels
lung concentration [1, 4]: 0.93 mg/kg

COc1cccc2c1C(=O)c1c(O)c3c(c(O)c1C2=O)C[C@@](O)(C(=O)CO)C[C@@H]3O[C@H]1C[C@H](N)[C@H](O)[C@H](C)O1 [doxorubicin]
liver levels higher than MCF7 xenograft levels ([3]; 2 hour timepoint): ~2 fold
tumor localization value ([3]; MCF7 xenograft, i.p. 1.6 mg/kg, up to 24 hours after single injection): about 1 mg/kg

From paper PMC4134956 (Bioorganic & medicinal chemistry, 2014)
